In ChEMBL document CHEMBL4507295 (2021):

Assays:
[1] = biological target: Tyrosine-protein phosphatase non-receptor type 2 (Homo sapiens, UniProt P17706); assay: (§1) Protein Tyrosine Phosphatase, PTPN2 (TCPTP) Eurofins-Panlabs enzyme assay; design: substrate with concentration DiFMUP, incubation time 60 min, incubation temperature 37 °C
[2] = biological target: T1, Tyrosine-protein phosphatase non-receptor type 2 (Homo sapiens) (UniProt P17706); assay: as §1; design: substrate with concentration DiFMUP, incubation time 60 min, incubation temperature 37 °C
T1 sequence (whole entry): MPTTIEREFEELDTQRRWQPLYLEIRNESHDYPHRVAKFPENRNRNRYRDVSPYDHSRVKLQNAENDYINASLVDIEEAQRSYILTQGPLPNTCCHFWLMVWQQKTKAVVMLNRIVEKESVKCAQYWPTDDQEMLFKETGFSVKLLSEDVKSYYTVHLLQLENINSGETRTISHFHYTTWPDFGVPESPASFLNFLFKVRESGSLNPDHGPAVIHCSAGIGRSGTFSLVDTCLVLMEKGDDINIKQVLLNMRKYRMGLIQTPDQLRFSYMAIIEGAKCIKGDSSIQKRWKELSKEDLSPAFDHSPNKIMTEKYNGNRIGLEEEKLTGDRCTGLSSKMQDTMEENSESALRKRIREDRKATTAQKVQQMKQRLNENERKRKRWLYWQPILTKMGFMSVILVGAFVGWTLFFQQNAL

[3] = biological target: Glutamate (NMDA/AMPA/Kainate) (Rattus norvegicus) (UniProt P35439+Q00959+Q00960+Q00961+Q62645+Q8VHN2+Q9R1M7+P22756+Q9ULK0+Q01812+P19491+P19492+P19493+P42260+P42264+P19490+Q63273+O43424); assay: Glutamate, Non-Selective Eurofins-Panlabs radioligand binding assay; type: protein-complex assay; design: ligand concentration 3.75 nM; settings: Compound concentration 10.0 uM
[4] = biological target: Substance-P receptor (Homo sapiens) (UniProt P25103); assay: Tachykinin NK1 Eurofins-Panlabs radioligand binding assay; settings: Compound concentration 10.0 uM
[5] = biological target: hERG (KCNH2) potassium channel (Homo sapiens, UniProt Q12809); assay: Potassium Channel hERG Eurofins-Panlabs radioligand binding assay; design: ligand concentration 0.05 nM, non-specific ligand with concentration 1 µM L-706,000, incubation time 75 min, incubation temperature 25 °C; settings: HEK-293 cells expressing recombinant human hERG, probe [S35] L-706,000 (radioligand, 0.05 nM), compound concentration 10 uM
[6] = biological target: Beta-3 adrenergic receptor (Homo sapiens) (UniProt P13945); settings: Compound concentration 10.0 uM
[7] = biological target: Galanin receptor type 2 (Homo sapiens) (UniProt O43603); assay: Galanin GAL2 Eurofins-Panlabs radioligand binding assay; design: ligand concentration 0.02 nM; settings: Compound concentration 10.0 uM
[8] = biological target: Histamine H3 receptor (Homo sapiens) (UniProt Q9Y5N1); assay: Histamine H3 Eurofins-Panlabs radioligand binding assay; settings: Compound concentration 10.0 uM
[9] = biological target: T2, Muscarinic acetylcholine receptor M5 (Homo sapiens) (UniProt P08912); assay: Inhibition of Muscarinic M5 at 10 µM in the Eurofins-Panlabs radioligand binding assay (Eurofins_assay_253010); design: ligand concentration 0.8 nM; settings: Compound concentration 10.0 uM
T2 sequence (whole entry): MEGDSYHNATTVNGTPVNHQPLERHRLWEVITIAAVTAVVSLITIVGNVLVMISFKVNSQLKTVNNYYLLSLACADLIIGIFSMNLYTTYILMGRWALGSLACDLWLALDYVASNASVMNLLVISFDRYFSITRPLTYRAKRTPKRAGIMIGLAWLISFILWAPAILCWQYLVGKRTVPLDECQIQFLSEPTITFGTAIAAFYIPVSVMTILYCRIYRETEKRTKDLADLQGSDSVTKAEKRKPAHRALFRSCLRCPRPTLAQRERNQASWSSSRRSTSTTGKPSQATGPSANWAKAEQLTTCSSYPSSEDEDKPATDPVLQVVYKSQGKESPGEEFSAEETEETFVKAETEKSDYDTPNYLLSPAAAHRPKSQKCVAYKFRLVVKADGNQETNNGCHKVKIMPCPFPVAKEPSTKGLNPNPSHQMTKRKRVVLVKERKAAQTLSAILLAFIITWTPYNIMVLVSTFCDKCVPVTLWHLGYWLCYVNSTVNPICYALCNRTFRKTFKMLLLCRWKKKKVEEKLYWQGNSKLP

[10] = biological target: Insulin receptor (Homo sapiens) (UniProt P06213); settings: Rattus norvegicus; Compound concentration 10.0 uM
[11] = biological target: T3, Muscarinic acetylcholine receptor M4 (Homo sapiens) (UniProt P08173); settings: Compound concentration 10.0 uM
T3 sequence (whole entry): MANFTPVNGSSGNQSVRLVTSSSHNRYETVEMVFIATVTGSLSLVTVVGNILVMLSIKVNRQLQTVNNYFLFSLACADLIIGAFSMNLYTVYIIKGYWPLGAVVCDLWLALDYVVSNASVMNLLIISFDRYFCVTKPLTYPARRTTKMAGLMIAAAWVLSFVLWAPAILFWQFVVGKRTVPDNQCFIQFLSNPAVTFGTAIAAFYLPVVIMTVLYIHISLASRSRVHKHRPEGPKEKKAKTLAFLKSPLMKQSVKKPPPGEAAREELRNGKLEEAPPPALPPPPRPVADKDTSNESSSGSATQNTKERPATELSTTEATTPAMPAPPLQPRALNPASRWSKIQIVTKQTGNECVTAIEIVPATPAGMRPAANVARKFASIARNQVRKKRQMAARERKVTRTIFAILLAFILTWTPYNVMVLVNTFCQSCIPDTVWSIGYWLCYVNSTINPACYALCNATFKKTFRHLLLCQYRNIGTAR

[12] = biological target: Protein kinase C alpha type (Homo sapiens, UniProt P17252); assay: Inhibition of Protein Serine/Threonine Kinase, PRKCA (PKCα) at 10 µM in the Eurofins-Panlabs enzyme assay (Eurofins_assay_180010); design: substrate with concentration Histone, incubation time 10 min, incubation temperature 25 °C
[13] = biological target: T4, 5-hydroxytryptamine receptor 3A (Homo sapiens) (UniProt P46098); assay: Inhibition of Serotonin (5-Hydroxytryptamine) 5-HT3 at 10 µM in the Eurofins-Panlabs radioligand binding assay (Eurofins_assay_271910); design: ligand concentration 0.69 nM; settings: Compound concentration 10.0 uM
T4 sequence (whole entry): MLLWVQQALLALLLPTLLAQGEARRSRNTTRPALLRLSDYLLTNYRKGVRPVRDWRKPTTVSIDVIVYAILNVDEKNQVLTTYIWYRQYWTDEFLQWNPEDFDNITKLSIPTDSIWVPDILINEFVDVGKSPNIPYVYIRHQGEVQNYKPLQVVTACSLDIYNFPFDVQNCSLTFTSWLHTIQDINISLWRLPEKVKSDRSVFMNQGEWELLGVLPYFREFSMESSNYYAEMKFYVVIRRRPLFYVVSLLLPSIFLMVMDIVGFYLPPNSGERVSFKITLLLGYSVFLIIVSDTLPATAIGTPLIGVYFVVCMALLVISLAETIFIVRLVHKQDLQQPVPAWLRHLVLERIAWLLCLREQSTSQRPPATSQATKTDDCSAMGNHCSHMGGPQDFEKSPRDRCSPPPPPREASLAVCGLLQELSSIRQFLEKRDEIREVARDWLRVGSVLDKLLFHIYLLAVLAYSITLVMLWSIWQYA

[14] = biological target: Glucocorticoid receptor (Homo sapiens) (UniProt P04150); assay: Glucocorticoid Eurofins-Panlabs radioligand binding assay; settings: Compound concentration 10.0 uM
Sequence of Glucocorticoid receptor (Homo sapiens) (P04150 whole entry): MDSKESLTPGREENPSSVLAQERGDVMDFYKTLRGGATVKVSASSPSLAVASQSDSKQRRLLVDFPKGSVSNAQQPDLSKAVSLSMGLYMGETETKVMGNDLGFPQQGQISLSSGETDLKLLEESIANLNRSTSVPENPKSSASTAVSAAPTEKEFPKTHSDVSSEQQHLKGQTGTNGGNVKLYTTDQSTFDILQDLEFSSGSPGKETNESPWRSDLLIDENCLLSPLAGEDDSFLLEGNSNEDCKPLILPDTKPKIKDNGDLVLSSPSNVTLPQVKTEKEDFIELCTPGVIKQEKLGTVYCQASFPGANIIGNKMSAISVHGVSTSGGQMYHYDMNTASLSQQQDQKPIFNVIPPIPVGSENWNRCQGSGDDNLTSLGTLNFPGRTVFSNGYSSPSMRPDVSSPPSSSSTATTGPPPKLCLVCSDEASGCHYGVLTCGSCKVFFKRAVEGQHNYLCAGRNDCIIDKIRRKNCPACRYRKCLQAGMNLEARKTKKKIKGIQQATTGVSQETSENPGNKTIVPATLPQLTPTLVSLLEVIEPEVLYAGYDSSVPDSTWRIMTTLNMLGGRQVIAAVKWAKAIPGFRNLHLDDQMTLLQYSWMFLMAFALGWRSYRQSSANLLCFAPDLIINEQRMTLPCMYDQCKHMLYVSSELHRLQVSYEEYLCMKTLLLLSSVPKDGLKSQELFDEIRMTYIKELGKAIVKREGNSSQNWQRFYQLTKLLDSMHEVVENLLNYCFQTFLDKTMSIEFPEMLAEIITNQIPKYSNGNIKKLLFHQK

Sequence of Substance-P receptor (Homo sapiens) (P25103 whole entry): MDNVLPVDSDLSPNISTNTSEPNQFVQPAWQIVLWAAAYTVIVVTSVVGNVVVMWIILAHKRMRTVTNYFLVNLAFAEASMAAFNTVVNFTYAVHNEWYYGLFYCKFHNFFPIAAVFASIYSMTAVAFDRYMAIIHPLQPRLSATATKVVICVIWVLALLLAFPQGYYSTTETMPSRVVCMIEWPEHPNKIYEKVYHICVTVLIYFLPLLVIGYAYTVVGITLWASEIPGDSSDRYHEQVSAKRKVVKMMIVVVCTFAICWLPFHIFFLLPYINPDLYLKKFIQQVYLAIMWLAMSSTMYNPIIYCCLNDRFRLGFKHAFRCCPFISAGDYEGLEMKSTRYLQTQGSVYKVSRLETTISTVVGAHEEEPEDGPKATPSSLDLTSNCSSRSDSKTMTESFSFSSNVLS
Sequence of Insulin receptor (Homo sapiens) (P06213 28-758 limits assumed): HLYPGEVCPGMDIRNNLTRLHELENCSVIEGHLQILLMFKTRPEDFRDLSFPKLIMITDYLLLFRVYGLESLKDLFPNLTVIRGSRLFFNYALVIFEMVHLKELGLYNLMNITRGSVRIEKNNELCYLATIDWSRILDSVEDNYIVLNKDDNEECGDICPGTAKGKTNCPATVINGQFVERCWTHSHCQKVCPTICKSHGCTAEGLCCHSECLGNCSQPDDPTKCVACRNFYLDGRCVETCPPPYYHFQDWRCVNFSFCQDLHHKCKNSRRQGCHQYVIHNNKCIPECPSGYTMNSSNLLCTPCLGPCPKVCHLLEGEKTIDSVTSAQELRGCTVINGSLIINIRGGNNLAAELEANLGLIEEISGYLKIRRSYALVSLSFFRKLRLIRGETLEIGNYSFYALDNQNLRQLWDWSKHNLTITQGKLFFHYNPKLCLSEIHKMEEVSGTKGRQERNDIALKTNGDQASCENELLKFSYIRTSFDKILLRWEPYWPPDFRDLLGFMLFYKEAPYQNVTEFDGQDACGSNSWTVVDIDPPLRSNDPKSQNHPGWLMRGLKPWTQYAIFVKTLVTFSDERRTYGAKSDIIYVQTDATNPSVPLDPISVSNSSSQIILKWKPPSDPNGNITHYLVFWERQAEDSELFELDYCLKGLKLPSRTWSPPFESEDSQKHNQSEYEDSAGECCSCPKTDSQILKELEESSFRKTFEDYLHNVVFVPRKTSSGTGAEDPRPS
Sequence of Insulin receptor (Homo sapiens) (P06213 763-1382 limits assumed): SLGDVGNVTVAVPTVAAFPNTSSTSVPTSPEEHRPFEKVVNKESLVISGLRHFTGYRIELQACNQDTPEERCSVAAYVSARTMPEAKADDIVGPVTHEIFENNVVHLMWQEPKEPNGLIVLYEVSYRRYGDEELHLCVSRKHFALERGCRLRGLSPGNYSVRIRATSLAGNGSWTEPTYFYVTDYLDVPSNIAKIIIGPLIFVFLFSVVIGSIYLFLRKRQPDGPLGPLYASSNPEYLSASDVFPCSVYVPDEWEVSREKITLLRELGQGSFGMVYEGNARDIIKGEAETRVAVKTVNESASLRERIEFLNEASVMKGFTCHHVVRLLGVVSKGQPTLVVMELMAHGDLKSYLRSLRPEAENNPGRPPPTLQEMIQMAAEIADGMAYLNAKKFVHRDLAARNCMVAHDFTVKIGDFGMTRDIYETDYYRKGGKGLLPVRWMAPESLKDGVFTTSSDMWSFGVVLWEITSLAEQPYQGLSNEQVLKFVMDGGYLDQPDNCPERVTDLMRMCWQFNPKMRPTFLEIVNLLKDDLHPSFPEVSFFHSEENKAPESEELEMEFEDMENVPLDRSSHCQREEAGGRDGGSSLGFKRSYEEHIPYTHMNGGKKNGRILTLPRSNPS
Sequence of Histamine H3 receptor (Homo sapiens) (Q9Y5N1 whole entry): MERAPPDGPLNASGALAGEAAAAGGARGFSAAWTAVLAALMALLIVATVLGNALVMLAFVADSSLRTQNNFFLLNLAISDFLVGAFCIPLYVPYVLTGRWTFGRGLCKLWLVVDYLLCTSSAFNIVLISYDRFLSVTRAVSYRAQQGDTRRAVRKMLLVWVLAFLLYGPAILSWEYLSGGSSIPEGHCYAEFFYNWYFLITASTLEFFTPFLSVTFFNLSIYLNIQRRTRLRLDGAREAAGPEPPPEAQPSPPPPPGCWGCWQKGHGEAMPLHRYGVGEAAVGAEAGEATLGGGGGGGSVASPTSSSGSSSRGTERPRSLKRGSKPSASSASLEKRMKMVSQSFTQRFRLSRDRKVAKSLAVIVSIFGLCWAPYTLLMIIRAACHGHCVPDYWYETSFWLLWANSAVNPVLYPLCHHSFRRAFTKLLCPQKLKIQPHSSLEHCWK
Sequence of Galanin receptor type 2 (Homo sapiens) (O43603 whole entry): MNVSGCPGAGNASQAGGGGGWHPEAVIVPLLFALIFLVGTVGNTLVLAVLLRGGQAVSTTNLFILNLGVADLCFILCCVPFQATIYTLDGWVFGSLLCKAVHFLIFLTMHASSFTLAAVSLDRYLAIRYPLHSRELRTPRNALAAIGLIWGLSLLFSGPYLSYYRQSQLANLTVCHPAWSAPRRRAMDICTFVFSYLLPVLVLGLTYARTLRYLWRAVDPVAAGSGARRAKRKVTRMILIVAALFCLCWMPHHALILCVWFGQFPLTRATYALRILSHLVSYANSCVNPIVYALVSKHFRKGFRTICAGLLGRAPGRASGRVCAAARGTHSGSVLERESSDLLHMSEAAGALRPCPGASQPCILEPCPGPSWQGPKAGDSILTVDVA
Sequence of hERG (KCNH2) potassium channel (Q12809 whole entry): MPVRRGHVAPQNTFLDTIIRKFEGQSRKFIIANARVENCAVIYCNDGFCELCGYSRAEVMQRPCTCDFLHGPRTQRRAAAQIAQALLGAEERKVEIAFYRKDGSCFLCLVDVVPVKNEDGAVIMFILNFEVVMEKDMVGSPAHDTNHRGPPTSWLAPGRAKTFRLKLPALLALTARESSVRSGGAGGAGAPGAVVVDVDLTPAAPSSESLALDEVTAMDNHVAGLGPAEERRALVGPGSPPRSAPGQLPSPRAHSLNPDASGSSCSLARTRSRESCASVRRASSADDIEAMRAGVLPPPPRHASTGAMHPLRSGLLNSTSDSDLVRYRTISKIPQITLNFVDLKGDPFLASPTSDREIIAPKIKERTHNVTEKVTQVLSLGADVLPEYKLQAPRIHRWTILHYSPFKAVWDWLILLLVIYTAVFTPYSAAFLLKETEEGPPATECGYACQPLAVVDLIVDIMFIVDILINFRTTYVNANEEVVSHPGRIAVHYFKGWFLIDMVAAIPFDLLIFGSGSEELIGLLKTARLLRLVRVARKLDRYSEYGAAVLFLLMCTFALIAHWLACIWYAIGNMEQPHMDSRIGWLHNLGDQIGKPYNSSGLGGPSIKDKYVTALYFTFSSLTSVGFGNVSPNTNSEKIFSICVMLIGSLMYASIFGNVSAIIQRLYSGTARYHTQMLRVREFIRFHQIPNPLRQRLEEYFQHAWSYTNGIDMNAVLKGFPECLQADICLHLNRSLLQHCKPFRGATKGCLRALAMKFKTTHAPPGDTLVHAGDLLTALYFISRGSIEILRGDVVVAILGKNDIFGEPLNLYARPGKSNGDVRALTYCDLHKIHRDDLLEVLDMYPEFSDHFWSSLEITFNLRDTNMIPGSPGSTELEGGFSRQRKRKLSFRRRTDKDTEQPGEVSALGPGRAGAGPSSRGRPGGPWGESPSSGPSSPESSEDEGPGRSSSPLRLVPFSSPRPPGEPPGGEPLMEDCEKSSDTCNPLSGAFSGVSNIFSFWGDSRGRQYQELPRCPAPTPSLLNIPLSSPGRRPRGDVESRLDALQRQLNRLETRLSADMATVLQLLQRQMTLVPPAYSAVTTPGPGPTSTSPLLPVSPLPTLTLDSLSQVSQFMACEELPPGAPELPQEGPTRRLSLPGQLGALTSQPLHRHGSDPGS
Sequence of Beta-3 adrenergic receptor (Homo sapiens) (P13945 whole entry, looked up): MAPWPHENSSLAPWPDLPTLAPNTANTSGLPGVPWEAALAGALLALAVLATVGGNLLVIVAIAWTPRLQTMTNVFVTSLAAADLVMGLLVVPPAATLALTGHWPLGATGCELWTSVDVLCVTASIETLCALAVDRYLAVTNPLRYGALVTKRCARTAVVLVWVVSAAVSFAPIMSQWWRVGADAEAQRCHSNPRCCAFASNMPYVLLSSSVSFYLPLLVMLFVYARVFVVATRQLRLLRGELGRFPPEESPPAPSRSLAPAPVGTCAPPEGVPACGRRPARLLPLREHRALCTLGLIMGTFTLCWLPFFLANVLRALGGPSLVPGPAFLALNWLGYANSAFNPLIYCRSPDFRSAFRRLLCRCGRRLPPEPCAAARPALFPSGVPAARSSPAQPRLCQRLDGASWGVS

N#CC1(c2ccccn2)CCN(Cc2cc(C(=O)O)c(=O)n3ccccc23)CC1 [MSD-M1PAM]
IC50 [1]: 10 µM | inhibition ([2]; Compound concentration 0.01 uM): -4% | inhibition ([2]; Compound concentration 0.1 uM): -5% | inhibition ([2]; Compound concentration 1.0 uM): 4% | inhibition ([2]; Compound concentration 10.0 uM): 50% | inhibition [3]: 8% | inhibition [4]: 0% | inhibition at 75 min, 10 µM [5]: 5% (not active) | inhibition [6]: -5% | inhibition [7]: 4% | inhibition [8]: -9% | inhibition [9]: 11% | inhibition [10]: 3% | inhibition [11]: 0% | IC50 [12]: 91.5 µM | inhibition ([12]; Compound concentration 0.1 uM): -9% | inhibition ([12]; Compound concentration 1.0 uM): -3% | inhibition ([12]; Compound concentration 10.0 uM): 11% | inhibition ([12]; Compound concentration 100.0 uM): 52% | inhibition [13]: 17% | inhibition [14]: 4%
